Patent publication US20240067632A1, “WEE1 Degrading Compounds and Uses Thereof” (Bristol-Myers Squibb Company, priority 2022, published 2024)
Read-outs that look alike come from different tables or passages of the source.

What was measured:
WEE1 = target: T1, WEE1 (Homo sapiens, UniProt P30291+Q96SW2); experiment: WEE1-ePL degradation assay (LentiX-WEE1-ePL-GSPT1-ND cells, InCELL Hunter luminescence, 4 h); type: cell-based; settings: 293T-LentiX WEE1-ePL cells; for DC50: read-out: 293T-LentiX WEE1-ePL Degradation 4 hr (EC50)
T1 construct: C-terminal ePL-tagged (DiscoverX, Fremont, CA) full-length WEE1 expression construct; expressed in transfected cells; host or cells: LentiX-HEK293T (Invitrogen), lentiviral transduction; co-expressing GSPT1-GN (G576N, lacking the first 158 amino acids)
In short: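 LentiX-HEK293T cells stably expressing C-terminally ePL-tagged full-length WEE1 were treated with compounds in a 10-point, 3-fold dilution series starting at 1 uM or 10 uM for 4 h at 37 °C. Remaining WEE1-ePL was detected by InCELL Hunter luminescence, and EC50, Ymin and Ymax came from a four-parameter logistic fit against DMSO control.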

MKN45 cells = experiment: MKN45 cell proliferation assay (Cell-Titer-Glo, 120 h); type: cell-based; settings: for EC50: Homo sapiens, MKN-45, 120 h, Cell-Titer-Glo, read-out: MKN45 Cell Prolif. 120 hr (EC50); for MKN45 Cell Prolif. 120 hr (Ymin-Obs): minimal percent of DMSO control observed in the concentrations tested
In short: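 Cells seeded at 400/well onto pre-printed 10-point half-log dilutions (top 1 or 10 uM, 0.1% DMSO final), in triplicate, and grown 120 h at 37 C. Viability by Cell-Titer-Glo luminescence, blank-subtracted and normalised to DMSO; EC50 from four-parameter logistic fit, with observed minimal % of control recorded as Ymin-obs.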

[1] = lower limit of the fit (0 = luciferase inhibitor, Ymax = DMSO control)
[2] = lower limit of the fit (Ymin=0 luciferase inhibitor, Ymax DMSO control)

Row | SMILES | 293T-LentiX WEE1-ePL Degradation 4 hr (Ymin) (WEE1; [1]) | DC50 (WEE1) [nM] | EC50 (MKN45 cells; growth inhibition) [nM] | 293T-LentiX WEE1-ePL Degradation 4 hr (Ymin) (WEE1; [2]) | EC50 (MKN45 cells) [nM] | MKN45 Cell Prolif. 120 hr (Ymin-Obs) (MKN45 cells)
1 | O=C1CCC(N2Cc3cc(O[C@H]4CCN(Cc5ccc6nc(N7C[C@H]8C[C@@H](C7)O8)ccc6c5)C4)ccc3C2=O)C(=O)N1 (stereo partly drawn) [3-(5-{[(3S)-1-({2-[(1R,5S)-6-oxa-3-azabicyclo[3.1.1]heptan-3-yl]quinolin-6-yl}methyl)pyrrolidin-3-yl]oxy}-1-oxo-2,3-dihydro-1H-isoindol-2-yl)piperidine-2,6-dione] | 38 | 1.98 | 3.19 |  |  | 9.79
2 | O=C1CCC(N2Cc3cc(O[C@H]4CCN(Cc5ccc6nc(N7C[C@H]8CC[C@@H](C7)O8)ncc6c5)C4)ccc3C2=O)C(=O)N1 (stereo partly drawn) [3-(5-{[(3S)-1-({2-[(1R,5S)-8-oxa-3-azabicyclo[3.2.1]octan-3-yl]quinazolin-6-yl}methyl)pyrrolidin-3-yl]oxy}-1-oxo-2,3-dihydro-1H-isoindol-2-yl)piperidine-2,6-dione] | 35 | 45.9 | 15.6 |  |  | 11.04
3 | O=C1CCC(N2Cc3cc(O[C@H]4CCN(Cc5ccc6nc(N7C[C@H]8CC[C@@H](C7)O8)ccc6c5)C4)ccc3C2=O)C(=O)N1 (stereo partly drawn) [3-(5-{[(3S)-1-({2-[(1R,5S)-8-oxa-3-azabicyclo[3.2.1]octan-3-yl]quinolin-6-yl}methyl)pyrrolidin-3-yl]oxy}-1-oxo-2,3-dihydro-1H-isoindol-2-yl)piperidine-2,6-dione] | 37 | 6.5 | 6.42 |  |  | 11.085
4 | COC[C@H]1CCCC[C@@H]1c1ccc2cc(CN3CC[C@H](Oc4ccc5c(c4)CN(C4CCC(=O)NC4=O)C5=O)C3)ccc2n1 (stereo partly drawn) [3-(5-{[(3S)-1-({2-[(1S,2S)-2-(methoxymethyl)cyclohexyl]quinolin-6-yl}methyl)pyrrolidin-3-yl]oxy}-1-oxo-2,3-dihydro-1H-isoindol-2-yl)piperidine-2,6-dione] |  | 3.03 |  | 21.7 | 1.43 | 11.37
5 | COC[C@H]1CCC[C@@H]1c1ccc2cc(CN3CC[C@H](Oc4ccc5c(c4)CN(C4CCC(=O)NC4=O)C5=O)C3)ccc2n1 (stereo partly drawn) [3-(5-{[(3S)-1-({2-[(1S,2S)-2-(methoxymethyl)cyclopentyl]quinolin-6-yl}methyl)pyrrolidin-3-yl]oxy}-1-oxo-2,3-dihydro-1H-isoindol-2-yl)piperidine-2,6-dione] |  | 5.38 |  | 27.68 | 11.9 | 11.37
6 | COC[C@@H]1CC[C@H](c2ccc3cc(CN4CC[C@H](Oc5ccc6c(c5)CN(C5CCC(=O)NC5=O)C6=O)C4)ccc3n2)C1 (stereo partly drawn) [3-(5-{[(3S)-1-({2-[(1S,3R)-3-(methoxymethyl)cyclopentyl]quinolin-6-yl}methyl)pyrrolidin-3-yl]oxy}-1-oxo-2,3-dihydro-1H-isoindol-2-yl)piperidine-2,6-dione] |  | 5.9 |  | 32.37 | 2.56 | 8.786
7 | O=C1CCC(N2Cc3cc(O[C@H]4CCN(Cc5ccc6nc([C@H]7CCC[C@@H](O)C7)ccc6c5)C4)ccc3C2=O)C(=O)N1 (stereo partly drawn) [3-(5-{[(3S)-1-({2-[(1S,3R)-3-hydroxycyclohexyl]quinolin-6-yl}methyl)pyrrolidin-3-yl]oxy}-1-oxo-2,3-dihydro-1H-isoindol-2-yl)piperidine-2,6-dione] | 32 | 9.66 | 11.1 |  |  | 7.93
8 | CO[C@@H]1CC[C@H](c2ccc3cc(CN4CC[C@H](Oc5ccc6c(c5)CN(C5CCC(=O)NC5=O)C6=O)C4)ccc3n2)C1 (stereo partly drawn) [3-(5-{[(3S)-1-({2-[(1S,3R)-3-methoxycyclopentyl]quinolin-6-yl}methyl)pyrrolidin-3-yl]oxy}-1-oxo-2,3-dihydro-1H-isoindol-2-yl)piperidine-2,6-dione] | 29.67 | 2.07 | 1.61 |  |  | 8.776
9 | O=C1CCC(N2Cc3cc(O[C@H]4CCN(Cc5ccc6nc([C@H]7CC[C@H](O)C7)ccc6c5)C4)ccc3C2=O)C(=O)N1 (stereo partly drawn) [3-(5-{[(3S)-1-({2-[(1S,3S)-3-hydroxycyclopentyl]quinolin-6-yl}methyl)pyrrolidin-3-yl]oxy}-1-oxo-2,3-dihydro-1H-isoindol-2-yl)piperidine-2,6-dione] | 27.5 | 2.67 | 3.24 |  |  | 8.695
10 | CO[C@H]1CCC[C@H](c2ccc3cc(CN4CC[C@H](Oc5ccc6c(c5)CN(C5CCC(=O)NC5=O)C6=O)C4)ccc3n2)C1 (stereo partly drawn) [3-(5-{[(3S)-1-({2-[(1S,3S)-3-methoxycyclohexyl]quinolin-6-yl}methyl)pyrrolidin-3-yl]oxy}-1-oxo-2,3-dihydro-1H-isoindol-2-yl)piperidine-2,6-dione] | 30.5 | 3.58 | 2.01 |  |  | 9.255

More lines, in order of falling DC50 (WEE1), values ahead:

Row | 293T-LentiX WEE1-ePL Degradation 4 hr (Ymin) (WEE1; [1]) | DC50 (WEE1) [nM] | EC50 (MKN45 cells; growth inhibition) [nM] | 293T-LentiX WEE1-ePL Degradation 4 hr (Ymin) (WEE1; [2]) | EC50 (MKN45 cells) [nM] | SMILES | MKN45 Cell Prolif. 120 hr (Ymin-Obs) (MKN45 cells)
11 | 32 | 28.7 | 16.5 |  |  | CO[C@@H]1CCC[C@H](c2ccc3cc(CN4CC[C@H](Oc5ccc6c(c5)CN(C5CCC(=O)NC5=O)C6=O)C4)ccc3n2)C1 (stereo partly drawn) [3-(5-{[(3S)-1-({2-[(1S,3R)-3-methoxycyclohexyl]quinolin-6-yl}methyl)pyrrolidin-3-yl]oxy}-1-oxo-2,3-dihydro-1H-isoindol-2-yl)piperidine-2,6-dione] | 9.143
12 |  | 21.5 |  | 32.43 | 428 | CO[C@@H]1CCCC[C@H]1c1ccc2cc(CN3CC[C@H](Oc4ccc5c(c4)CN(C4CCC(=O)NC4=O)C5=O)C3)ccc2n1 (stereo partly drawn) [3-(5-{[(3S)-1-({2-[(1S,2R)-2-methoxycyclohexyl]quinolin-6-yl}methyl)pyrrolidin-3-yl]oxy}-1-oxo-2,3-dihydro-1H-isoindol-2-yl)piperidine-2,6-dione] | 51.58
13 |  | 7.61 |  | 32.49 | 5.71 | COC[C@H]1CCC[C@H](c2ccc3cc(CN4CC[C@H](Oc5ccc6c(c5)CN(C5CCC(=O)NC5=O)C6=O)C4)ccc3n2)C1 (stereo partly drawn) [3-(5-{[(3S)-1-({2-[(1S,3S)-3-(methoxymethyl)cyclohexyl]quinolin-6-yl}methyl)pyrrolidin-3-yl]oxy}-1-oxo-2,3-dihydro-1H-isoindol-2-yl)piperidine-2,6-dione] | 11.34
14 |  | 6.8 |  | 33.9 | 2.52 | COC[C@H]1CC[C@H](c2ccc3cc(CN4CC[C@H](Oc5ccc6c(c5)CN(C5CCC(=O)NC5=O)C6=O)C4)ccc3n2)C1 (stereo partly drawn) [3-(5-{[(3S)-1-({2-[(1S,3S)-3-(methoxymethyl)cyclopentyl]quinolin-6-yl}methyl)pyrrolidin-3-yl]oxy}-1-oxo-2,3-dihydro-1H-isoindol-2-yl)piperidine-2,6-dione] | 8.033
15 |  | 3.01 |  | 37.17 | 12 | CO[C@@H]1CCC[C@H]1c1ccc2cc(CN3CC[C@H](Oc4ccc5c(c4)CN(C4CCC(=O)NC4=O)C5=O)C3)ccc2n1 (stereo partly drawn) [3-(5-{[(3S)-1-({2-[(1S,2R)-2-methoxycyclopentyl]quinolin-6-yl}methyl)pyrrolidin-3-yl]oxy}-1-oxo-2,3-dihydro-1H-isoindol-2-yl)piperidine-2,6-dione] | 13.63
16 | 31 | 2.99 | 2.66 |  |  | O=C1CCC(N2Cc3cc(O[C@H]4CCN(Cc5ccc6nc([C@H]7CC[C@@H](O)C7)ccc6c5)C4)ccc3C2=O)C(=O)N1 (stereo partly drawn) [3-(5-{[(3S)-1-({2-[(1S,3R)-3-hydroxycyclopentyl]quinolin-6-yl}methyl)pyrrolidin-3-yl]oxy}-1-oxo-2,3-dihydro-1H-isoindol-2-yl)piperidine-2,6-dione] | 7.68
17 |  | 1.63 |  | 27.12 | 1.73 | COC[C@@H]1CCC[C@H](c2ccc3cc(CN4CC[C@H](Oc5ccc6c(c5)CN(C5CCC(=O)NC5=O)C6=O)C4)ccc3n2)C1 (stereo partly drawn) [3-(5-{[(3S)-1-({2-[(1S,3R)-3-(methoxymethyl)cyclohexyl]quinolin-6-yl}methyl)pyrrolidin-3-yl]oxy}-1-oxo-2,3-dihydro-1H-isoindol-2-yl)piperidine-2,6-dione] | 10.23
18 |  | 0.334 |  | 26.36 | 5.76 | COC[C@@H]1CCC[C@@H]1c1ccc2cc(CN3CC[C@H](Oc4ccc5c(c4)CN(C4CCC(=O)NC4=O)C5=O)C3)ccc2n1 (stereo partly drawn) [3-(5-{[(3S)-1-({2-[(1S,2R)-2-(methoxymethyl)cyclopentyl]quinolin-6-yl}methyl)pyrrolidin-3-yl]oxy}-1-oxo-2,3-dihydro-1H-isoindol-2-yl)piperidine-2,6-dione] | 11.34
